Experimental data taken from publication PMC9486168, “Protein-protein interaction-based high throughput screening for adenylyl cyclase 1 inhibitors: Design, implementation, and discovery of a novel chemotype” (Frontiers in Pharmacology, 2022).
Counter-ions that a name gives are not always drawn.

What was measured:
AC1 = molecular target: T1, AC1 (Homo sapiens, UniProt Q08828); test: cAMP accumulation assay, AC1-HEK Δ3/6 KO cells; format: cell-based; conditions: for IC50: CDI analog SAR set, 3 μM A23187, read-out: IC50 (μM) ± SEM AC1
T1 construct: expressed in transfected cells
T1 sequence (Q08828 whole entry): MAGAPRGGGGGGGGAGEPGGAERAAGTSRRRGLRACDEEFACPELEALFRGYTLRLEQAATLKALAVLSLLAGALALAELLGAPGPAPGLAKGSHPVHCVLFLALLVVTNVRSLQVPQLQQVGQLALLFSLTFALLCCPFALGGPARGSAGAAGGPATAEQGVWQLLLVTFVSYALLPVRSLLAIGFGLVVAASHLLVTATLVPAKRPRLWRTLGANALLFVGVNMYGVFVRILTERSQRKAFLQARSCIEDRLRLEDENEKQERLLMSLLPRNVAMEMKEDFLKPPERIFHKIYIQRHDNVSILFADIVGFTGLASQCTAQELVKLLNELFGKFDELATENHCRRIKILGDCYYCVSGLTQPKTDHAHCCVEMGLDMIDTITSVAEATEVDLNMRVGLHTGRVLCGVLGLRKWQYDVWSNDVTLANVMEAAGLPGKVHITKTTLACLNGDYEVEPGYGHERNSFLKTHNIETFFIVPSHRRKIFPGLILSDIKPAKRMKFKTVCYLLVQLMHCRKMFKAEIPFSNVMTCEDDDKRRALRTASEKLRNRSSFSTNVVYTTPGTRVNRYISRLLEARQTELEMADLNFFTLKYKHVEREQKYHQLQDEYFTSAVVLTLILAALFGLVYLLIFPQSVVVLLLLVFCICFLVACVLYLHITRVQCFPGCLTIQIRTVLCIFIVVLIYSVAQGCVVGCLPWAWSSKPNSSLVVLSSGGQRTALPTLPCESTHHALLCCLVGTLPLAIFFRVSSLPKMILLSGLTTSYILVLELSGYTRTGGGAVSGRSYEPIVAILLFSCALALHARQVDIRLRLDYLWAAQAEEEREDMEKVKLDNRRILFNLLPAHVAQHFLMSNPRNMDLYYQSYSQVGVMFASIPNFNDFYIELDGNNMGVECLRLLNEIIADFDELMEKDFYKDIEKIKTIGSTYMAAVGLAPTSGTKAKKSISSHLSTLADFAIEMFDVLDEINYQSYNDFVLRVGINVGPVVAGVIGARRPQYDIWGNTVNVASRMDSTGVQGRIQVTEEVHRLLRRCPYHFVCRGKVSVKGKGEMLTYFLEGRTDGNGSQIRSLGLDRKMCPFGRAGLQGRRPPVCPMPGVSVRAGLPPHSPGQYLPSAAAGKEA
Procedure: Cells were then incubated for 1 h at 37°C and 5% CO2. Cells were then treated with varying concentrations of inhibitors for 30 min, followed by treatment with calcium ionophore A23187 (3 μM) in 500 μM 3-isobutyl-1-methylxanthine (IBMX), a phosphodiesterase inhibitor, for 1 h at RT (Sigma Aldrich, St. Louis, MO). Finally, Cisbio HTRF detection reagents were added and incubated for 1–24 h at RT. Plates were read according to manufacturer’s protocol on an HTRF-compatible plate reader at 620 and 665 nm cAMP concentrations were interpolated from a cAMP standard curve. […] For cytotoxicity assays, compounds were tested at 30 μM and this protocol was used with the exception of detection reagents; CellTiter-Glo 2.0 reagent was used according to manufacturer’s protocol and luminescence was read on the Synergy Neo2 plate reader. Data are normalized to cells treated with vehicle (100%) or 2% tween (0%) and are represented as the percent of vehicle, from the average of three independent experiments (N = 3).

AC8 = molecular target: T2, AC8 (Homo sapiens, UniProt P40145); test: cAMP accumulation assay, AC8-HEK Δ3/6 KO cells; format: cell-based; conditions: for IC50: CDI analog SAR set, 3 μM A23187, read-out: IC50 (μM) ± SEM AC8
T2 construct: expressed in transfected cells
T2 sequence (P40145 whole entry, species assumed): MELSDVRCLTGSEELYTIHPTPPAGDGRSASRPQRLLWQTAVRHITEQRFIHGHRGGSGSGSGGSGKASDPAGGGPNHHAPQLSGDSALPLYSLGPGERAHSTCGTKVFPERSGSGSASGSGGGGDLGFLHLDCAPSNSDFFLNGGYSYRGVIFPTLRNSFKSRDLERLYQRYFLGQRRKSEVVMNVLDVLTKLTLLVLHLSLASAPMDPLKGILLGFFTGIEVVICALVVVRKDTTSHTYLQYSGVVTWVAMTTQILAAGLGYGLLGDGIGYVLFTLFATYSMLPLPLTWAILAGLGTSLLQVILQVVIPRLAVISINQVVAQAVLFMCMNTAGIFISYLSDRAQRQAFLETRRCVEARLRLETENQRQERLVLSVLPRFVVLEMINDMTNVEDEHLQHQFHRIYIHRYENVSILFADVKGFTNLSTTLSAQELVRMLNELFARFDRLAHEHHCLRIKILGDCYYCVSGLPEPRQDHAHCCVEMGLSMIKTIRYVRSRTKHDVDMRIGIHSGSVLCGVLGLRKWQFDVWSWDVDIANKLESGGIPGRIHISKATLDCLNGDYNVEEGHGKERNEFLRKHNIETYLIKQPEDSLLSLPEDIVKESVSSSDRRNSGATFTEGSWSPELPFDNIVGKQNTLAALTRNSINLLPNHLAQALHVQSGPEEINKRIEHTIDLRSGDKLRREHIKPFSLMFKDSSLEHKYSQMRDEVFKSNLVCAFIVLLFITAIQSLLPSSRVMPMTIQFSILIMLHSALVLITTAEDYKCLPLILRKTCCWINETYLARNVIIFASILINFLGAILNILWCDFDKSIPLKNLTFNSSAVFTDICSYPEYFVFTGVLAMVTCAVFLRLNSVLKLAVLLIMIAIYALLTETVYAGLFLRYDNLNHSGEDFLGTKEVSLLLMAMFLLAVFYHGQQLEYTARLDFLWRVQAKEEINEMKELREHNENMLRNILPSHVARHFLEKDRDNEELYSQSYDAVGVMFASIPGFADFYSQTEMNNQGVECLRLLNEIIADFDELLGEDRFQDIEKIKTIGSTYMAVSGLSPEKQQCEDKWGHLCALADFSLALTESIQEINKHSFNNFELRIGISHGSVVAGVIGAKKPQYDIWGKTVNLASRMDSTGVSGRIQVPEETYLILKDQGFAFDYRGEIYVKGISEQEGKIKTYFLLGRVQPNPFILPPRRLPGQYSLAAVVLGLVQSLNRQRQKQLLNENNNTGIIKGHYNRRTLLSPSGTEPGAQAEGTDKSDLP
Procedure: (§1) Cryopreserved HEK293 cells with AC3 and AC6 knocked out, and stably expressing AC1, AC2, AC5, or AC8 (AC1-HEK Δ3/6 KO, AC2-HEK Δ3/6 KO, AC5-HEK Δ3/6 KO, or AC8-HEK Δ3/6 KO cells, respectively; [Soto-Velasquez et al., 2018]) were plated at 5,000 cells/well. Cells were then incubated for 1 h at 37°C and 5% CO2. Cells were then treated with varying concentrations of inhibitors for 30 min, followed by treatment with calcium ionophore A23187 (3 μM) in 500 μM 3-isobutyl-1-methylxanthine (IBMX), a phosphodiesterase inhibitor, for 1 h at RT (Sigma Aldrich, St. Louis, MO). Finally, Cisbio HTRF detection reagents were added and incubated for 1–24 h at RT. Plates were read according to manufacturer’s protocol on an HTRF-compatible plate reader at 620 and 665 nm cAMP concentrations were interpolated from a cAMP standard curve. […] For cytotoxicity assays, compounds were tested at 30 μM and this protocol was used with the exception of detection reagents; CellTiter-Glo 2.0 reagent was used according to manufacturer’s protocol and luminescence was read on the Synergy Neo2 plate reader. Data are normalized to cells treated with vehicle (100%) or 2% tween (0%) and are represented as the percent of vehicle, from the average of three independent experiments (N = 3).

[1] = Cytotoxicity assay (CellTiter-Glo 2.0) in AC1-HEK Δ3/6 KO cells; format: cell-based; conditions: human, percent of vehicle, read-out: % Viable Cells at AC1 30 μM
Procedure: as §1

AC1-C1b/CaM = molecular target: T3, AC1-C1b/CaM (Homo sapiens, UniProt P0DP23); test: AC1-C1b/CaM fluorescence polarization (FP) assay; format: binding; conditions: repurchased powder
T3 construct: made in house; host or cells: E. coli BL21-CodonPlus (DE3)-RIPL

Compound | IC50 (AC1) [µM] | IC50 (AC8) [µM] | fold more potent at AC8 than AC1 (AC8; cAMP accumulation IC50s) [fold] | fold reduction in AC1 potency compared to 15 (AC1; matched molecular pair 15) [fold] | fold reduction in AC8 potency compared to 15 (AC8; matched molecular pair 15) [fold] | viability at 30 min, 30 μM [1] [%] | inhibition of AC1/CaM in the FP assay after fresh powder stocks were ordered (AC1-C1b/CaM)
CCc1cc(C(c2cccs2)N2CCN(CC)CC2)c(NC(=O)c2ccco2)s1 (stereo not drawn) [Compound 26] | 4.39 ± 0.44 | 2.92 ± 1.36 | – | – | – | 61 | –
CN1CCN(C(c2cccs2)c2c(NC(=O)c3ccco3)sc3c2CCCC3)CC1 (stereo not drawn) [Compound 27] | 34.8 ± 13 | 25.6 ± 6.77 | – | – | – | 48 | –
CCN1CCN(C(c2cccs2)c2c(NC(=O)c3ccco3)sc3c2CCCC3)CC1 (stereo not drawn) [Compound 28] | 20 ± 5.23 | 11.6 ± 1.82 | 2 | – | – | 88 | –
CCc1cc(C(c2ccccc2)N2CCN(C)CC2)c(NC(=O)c2ccco2)s1 (stereo not drawn) [Compound 29] | 10.3 ± 1.45 | 14.4 ± 4.1 | – | ~2 | ~3 | 65 | –
CCc1cc(C(Nc2ccccn2)c2cccs2)c(NC(=O)c2ccco2)s1 (stereo not drawn) [Compound 33] | 3.58 ± 2.26 | 2.7 ± 1.92 | – | – | – | 88 | –
CN1CCC[C@H]1c1cccnc1.O=C(O)C(O)C(O)C(=O)O.O=C(O)C(O)C(O)C(=O)O [nicotine ditartrate] | – | – | – | – | – | – | did not exhibit significant inhibition
CCN(C)C(=O)Oc1cccc([C@H](C)N(C)C)c1 [rivastigmine tartrate] | – | – | – | – | – | – | did not exhibit significant inhibition
ethyl quinine | – | – | – | – | – | – | did not exhibit significant inhibition

Further lines, with some results ahead:

IC50 (AC1) [µM] | IC50 (AC8) [µM] | fold more potent at AC8 than AC1 (AC8; cAMP accumulation IC50s) [fold] | fold reduction in AC1 potency compared to 15 (AC1; matched molecular pair 15) [fold] | fold reduction in AC8 potency compared to 15 (AC8; matched molecular pair 15) [fold] | Compound | viability at 30 min, 30 μM [1] [%] | inhibition of AC1/CaM in the FP assay after fresh powder stocks were ordered (AC1-C1b/CaM)
2.48 ± 0.39 | 3.23 ± 0.57 | – | – | – | CCc1cc(C(c2cccs2)N2CCCCC2)c(NC(=O)c2ccco2)s1 (stereo not drawn) [Compound 22] | 97 | –
3.08 ± 0.25 | 4.21 ± 1.01 | – | – | – | Cc1cc(C(c2cccs2)N2CCC(C)CC2)c(NC(=O)c2ccco2)s1 (stereo not drawn) [Compound 23] | 100 | –
10.6 ± 2.72 | 4.99 ± 1.1 | – | – | – | Cc1cc(C(c2cccs2)N2CCOCC2)c(NC(=O)c2ccco2)s1 (stereo not drawn) [Compound 30] | 100 | –
5.25 ± 1.07 | 1.49 ± 0.38 | – | – | – | CCc1cc(C(c2cccs2)N2CCOCC2)c(NC(=O)c2ccco2)s1 (stereo not drawn) [Compound 31] | 37 | –
